Earlier results, collected in patent US20230018472A1, “RHINENCHYSIS COMPOSITION CONTAINING OLOPATADINE” (TOKO YAKUHIN KOGYO CO., LTD., priority 2019, published 2023).
Like-named read-outs stand apart in the source and are kept apart here.

CN(C)CC/C=C1/c2ccccc2COc2ccc(CC(=O)O)cc21 [olopatadine]
Solubility of olopatadine (around neutral pH): very low
Solubility of olopatadine (concentration 0.2% or more as free base, solution having pH of 5 or higher): not soluble
